Experimental data published in patent US6559140B2 (Abbott Laboratories, priority 2000, dated 2003).

Molecular target: H3 receptor (Rattus norvegicus, UniProt Q9QYN8)
Experiment: H3 receptor binding, (3H)-N-α-methylhistamine displacement in rat cortical membranes
Conditions: male Sprague-Dawley rat brain cortical membranes, 30 minutes at 25° C., Cheng-Prusoff, geometric mean values of 2-10 separate experiments

Chain of H3 receptor (Q9QYN8 1-397 isoform Q9QYN8-3): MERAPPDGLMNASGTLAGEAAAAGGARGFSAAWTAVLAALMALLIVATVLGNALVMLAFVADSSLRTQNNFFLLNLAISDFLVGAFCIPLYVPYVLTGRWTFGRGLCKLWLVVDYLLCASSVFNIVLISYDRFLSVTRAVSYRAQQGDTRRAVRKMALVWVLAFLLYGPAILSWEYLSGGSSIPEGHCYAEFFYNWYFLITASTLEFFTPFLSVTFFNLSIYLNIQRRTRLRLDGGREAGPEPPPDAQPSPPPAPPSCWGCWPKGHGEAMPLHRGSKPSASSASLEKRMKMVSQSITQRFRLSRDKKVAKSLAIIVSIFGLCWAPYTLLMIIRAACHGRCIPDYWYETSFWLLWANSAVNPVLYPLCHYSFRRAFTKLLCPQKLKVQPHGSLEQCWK

| SMILES | Ki [nM] |
| --- | --- |
| C[C@@H](NC(=O)OC(C)(C)C)C(=O)N1CCN(CCCOc2ccc(C(=O)C3CC3)cc2)CC1 [Example 64, Tert-butyl (1R)-2-(4-(3-(4-(cyclopropylcarbonyl)phenoxy)propyl)-1-piperazinyl)-1-methyl-2-oxoethylcarbamate] | 2.07 |
| CCCc1nc(-c2ccc(OCCCN3CCCN(C(=O)[C@@H](C)NC(=O)c4ccco4)CC3)cc2F)no1 [Example 141, N-[(1R)-2-(4-{3-[3-fluoro-4-(5-propyl-1,2,4-oxadiazol-3-yl)phenoxy]propyl}-1,4-diazepan-1-yl)-1-methyl-2-oxoethyl]-2-furamide] | 2.34 |

Second part, the molecule after the results:

| Ki [nM] | SMILES |
| --- | --- |
| 9.03 | C[C@H](NC(=O)OC(C)(C)C)c1nc(-c2ccc(OCCCN3CCCN(C(=O)[C@@H](C)NC(=O)c4ccco4)CC3)cc2F)no1 [Example 146, Tert-butyl (1S)-1-{3-[2-fluoro-4-(3-{4-[(2R)-2-(2-furoylamino)propanoyl]-1,4-diazepan-1-yl}propoxy)phenyl]-1,2,4-oxadiazol-5-yl}ethylcarbamate] |
| 2.41 | C[C@@H](NC(=O)c1ccco1)C(=O)N1CCN(CCCOc2ccc(-c3noc(-c4ccccc4)n3)c(F)c2)CC1 [Example 161, N-[(1R)-2-(4-{3-[3-fluoro-4-(5-phenyl-1,2,4-oxadiazol-3-yl)phenoxy]propyl}-1-piperazinyl)-1-methyl-2-oxoethyl]-2-furamide] |
| 1.56 | Cc1ccc(C(=O)N[C@H](C)C(=O)N2CCN(CCCOc3ccc(-c4noc(CC5CCCC5)n4)c(F)c3)CC2)cc1 [Example 173, N-{(1R)-2-[4-(3-{4-[5-(cyclopentylmethyl)-1,2,4-oxadiazol-3-yl]-3-fluorophenoxy}propyl)-1-piperazinyl]-1-methyl-2-oxoethyl}-4-methylbenzamide] |
| 1.36 | C[C@@H](NC(=O)c1ccco1)C(=O)N1CCCN(CCCOc2ccc(-c3noc(C4CCCC4)n3)c(F)c2)CC1 [Example 144, N-[(1R)-2-(4-{3-[4-(5-cyclopentyl-1,2,4-oxadiazol-3-yl)-3-fluorophenoxy]propyl}-1,4-diazepan-1-yl)-1-methyl-2-oxoethyl]-2-furamide] |
